Measured values: PubChem BioAssay (NCI)
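Grown in 96-well plates, cells were treated for 48 hours with each compound at five concentrations. Insufficient inhibition: endpoint recorded as highest concentration tested. The concentration for 50% growth inhibition is given as GI50. TGI is the concentration that stops growth completely.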

Assays:
Test in all cases: NCI tumour cell line growth inhibition, 48 h
M14 melanoma = test system: M14 melanoma
OVCAR-5 ovarian = test system: OVCAR-5 ovarian
HOP-92 NSCLC = test system: HOP-92 NSCLC
IGROV1 ovarian = test system: IGROV1 ovarian
UACC-62 melanoma = test system: UACC-62 melanoma
HOP-62 NSCLC = test system: HOP-62 NSCLC
HCT-116 colon = test system: HCT-116 colon
SK-MEL-5 melanoma = test system: SK-MEL-5 melanoma
NCI-H23 lung = test system: NCI-H23 lung
BT-549 breast = test system: BT-549 breast

| SMILES | TGI (M14 melanoma) | TGI (OVCAR-5 ovarian) | TGI (HOP-92 NSCLC) | TGI (IGROV1 ovarian) | TGI (UACC-62 melanoma) | TGI (HOP-62 NSCLC) | TGI (HCT-116 colon) | TGI (SK-MEL-5 melanoma) | TGI (NCI-H23 lung) | GI50 (M14 melanoma) | GI50 (OVCAR-5 ovarian) | GI50 (HOP-92 NSCLC) | GI50 (IGROV1 ovarian) | GI50 (UACC-62 melanoma) | GI50 (HOP-62 NSCLC) | GI50 (HCT-116 colon) | GI50 (NCI-H23 lung) | GI50 (BT-549 breast) | TGI (BT-549 breast) | GI50 (SK-MEL-5 melanoma) |
| --- | --- | --- | --- | --- | --- | --- | --- | --- | --- | --- | --- | --- | --- | --- | --- | --- | --- | --- | --- | --- |
| Cc1nc(Nc2ccc(Cl)cc2)sc1C(=O)NNc1ccc([N+](=O)[O-])cc1[N+](=O)[O-] | 45.3 µM | 30.7 µM | 41.4 µM | 46.6 µM | 28.6 µM | 25.2 µM | 26.7 µM | 30.2 µM | 35.1 µM | – | – | – | – | – | – | – | – | – | – | – |
| COc1cccc(-c2cc(=O)c3cc(OC)ccc3[nH]2)c1 | 41.5 µM | > 100 µM | – | > 100 µM | > 100 µM | 29.7 µM | 22.6 µM | 2.57 µM | – | 0.084 µM | 0.528 µM | 7.15 µM | 0.25 µM | 0.0459 µM | 0.401 µM | 0.0541 µM | 0.358 µM | – | – | – |
| CN(C)CCCNC(=O)c1cc(NC(=O)c2cc(NC(=O)CCc3c[nH]c4ccccc34)cn2C)cn1C | > 100 µM | > 100 µM | > 100 µM | > 100 µM | > 100 µM | – | – | > 100 µM | > 100 µM | > 100 µM | > 100 µM | 72.8 µM | > 100 µM | > 100 µM | – | – | > 100 µM | > 100 µM | > 100 µM | > 100 µM |
| Cc1[nH]c2ccccc2c1C(=O)CC1(O)C(=O)Nc2ccccc21 (configuration not stated) | > 100 µM | > 100 µM | > 100 µM | > 100 µM | > 100 µM | > 100 µM | > 100 µM | > 100 µM | > 100 µM | – | – | – | – | – | – | – | – | – | – | – |
| c1cc(N(CCn2cccn2)CCn2cccn2)cc(N(CCn2cccn2)CCn2cccn2)c1 | > 100 µM | – | > 100 µM | – | > 100 µM | > 100 µM | > 100 µM | > 100 µM | – | – | – | – | – | – | – | – | – | – | – | – |
| CC(=O)[CH-]C(C)=O.CC(=O)[CH-]C(C)=O.[CH2-]CCC.[CH2-]CCC.[Sn+4] | 1.86 µM | 3.22 µM | 1.25 µM | 2.66 µM | 1.18 µM | 3.56 µM | 1.96 µM | 2.15 µM | 1.39 µM | 0.608 µM | 1.82 µM | 0.256 µM | 1.23 µM | 0.31 µM | 2.02 µM | 0.65 µM | 0.315 µM | – | – | 0.848 µM |
| CC(C)CC(NC(=O)c1cccc(O)c1O)C(=O)NCc1cc(CNC(=O)C(CC(C)C)NC(=O)c2cccc(O)c2O)cc(CNC(=O)C(CC(C)C)NC(=O)c2cccc(O)c2O)c1 (configuration not stated) | – | 27.1 µM | 32 µM | 27.1 µM | 17.8 µM | 52.8 µM | 38.4 µM | 30.4 µM | 36.1 µM | – | – | – | – | – | – | – | – | – | – | – |
| CC(C)=CC(=O)C/C(=N\NC(N)=S)C(=O)Nc1ccc(Cl)cc1 | > 100 µM | > 100 µM | – | > 100 µM | > 100 µM | – | > 100 µM | > 100 µM | > 100 µM | – | – | – | – | – | – | – | – | – | – | – |
| COc1cc(OC)cc(N(CCNC(C)C)c2ccc3ncc(-c4cnn(C)c4)nc3c2)c1 | 18.6 µM | 19.8 µM | 15.5 µM | 11.1 µM | 21.5 µM | 20 µM | 17 µM | – | 20.9 µM | 4.45 µM | 5.42 µM | 3.32 µM | 3.02 µM | 6.76 µM | 4.63 µM | 4.55 µM | 6.9 µM | 2.78 µM | 17.9 µM | – |
| Cn1cc(C2=C(c3cn(CCCCN)c4ccccc34)C(=O)NC2=O)c2ccccc21 | > 25 µM | > 25 µM | – | > 25 µM | > 25 µM | > 25 µM | > 25 µM | > 25 µM | > 25 µM | > 25 µM | > 25 µM | – | > 25 µM | > 25 µM | > 25 µM | > 25 µM | > 25 µM | > 25 µM | > 25 µM | > 25 µM |
| [Cl-].[O-]/N=C(\c1ccccc1)c1ccccn1.[O-]/N=C(\c1ccccc1)c1ccccn1.[O-]/N=C(\c1ccccc1)c1ccccn1.[Sm+3] | 40.6 µM | > 100 µM | 87.8 µM | 79.6 µM | 78.7 µM | > 100 µM | > 100 µM | 47 µM | 87.1 µM | 19.6 µM | 53.9 µM | 23.6 µM | 27.8 µM | 26.2 µM | 28 µM | 41.2 µM | 32.8 µM | – | – | 20.5 µM |
| CNC(=O)c1ccc(N2CCN(Cc3ccc4nc(C)c(=O)[nH]c4c3F)CC2)c(F)n1 | > 100 µM | > 100 µM | > 100 µM | > 100 µM | – | > 100 µM | > 100 µM | > 100 µM | > 100 µM | > 100 µM | > 100 µM | 21.3 µM | > 100 µM | – | 43.7 µM | 91.4 µM | 70.6 µM | 89.6 µM | > 100 µM | 30.5 µM |
| CCc1cc(Cc2cc(Cl)c(NC(=O)C(=O)C3NC(=O)NC3=O)c(CC)c2)cc(Cl)c1NC(=O)C(=O)C1NC(=O)NC1=O (configuration not stated) | > 100 µM | > 100 µM | > 100 µM | > 100 µM | > 100 µM | > 100 µM | 94.8 µM | > 100 µM | 72.6 µM | – | – | – | – | – | – | – | – | – | – | – |
| CC(C)=CCc1c(OC(=O)c2c(C)cc(O)cc2O)cc(CO)c(CO)c1O | 44.7 µM | 43.1 µM | 52.3 µM | 62.2 µM | 29.6 µM | – | 43.9 µM | 29.1 µM | 33 µM | – | – | – | – | – | – | – | – | – | 41 µM | – |
| CN(C)CC(C)(C)/C(=N\Nc1ccccc1)c1ccccc1 | 66.5 µM | > 100 µM | – | > 100 µM | 40.8 µM | > 100 µM | > 100 µM | > 100 µM | > 100 µM | – | – | – | – | – | – | – | – | – | – | – |
| O=C(O)CCCCCCC[C@H]1S[C@H]1CCCCCCO | > 100 µM | > 100 µM | – | > 100 µM | > 100 µM | > 100 µM | > 100 µM | > 100 µM | > 100 µM | – | – | – | – | – | – | – | – | – | – | – |
| C=C(COC(C)=O)CC(OC(C)=O)c1ccccc1 (configuration not stated) | > 100 µM | > 100 µM | > 100 µM | > 100 µM | > 100 µM | > 100 µM | > 100 µM | > 100 µM | > 100 µM | – | – | – | – | – | – | – | – | – | – | – |
| CN1CCCC2(CCCc3ccccc32)C1 (configuration not stated) | > 100 µM | > 100 µM | > 100 µM | > 100 µM | > 100 µM | > 100 µM | > 100 µM | > 100 µM | > 100 µM | – | – | – | – | – | – | – | – | – | – | – |
